Source: ChEMBL document CHEMBL2331210, “New 2-benzylsulfanyl-nicotinic acid based 1,3,4-oxadiazoles: their synthesis and biological evaluation” (2013)
Converted amounts (≈) assume the structure as drawn.

Experiments:
Assay type in all cases: functional
[1] = tested on: UO-31; experiment: Antitumor activity against human UO31 cells assessed as cell growth at 0.1 uM; details: read-out: Activity
[2] = tested on: TK-10; experiment: Antitumor activity against human TK10 cells assessed as cell growth at 0.1 uM; details: read-out: Activity
[3] = tested on: SN12C; experiment: Antitumor activity against human SN12C cells assessed as cell growth at 0.1 uM; details: read-out: Activity
[4] = tested on: RXF 393; experiment: Antitumor activity against human RXF393 cells assessed as cell growth at 0.1 uM; details: read-out: Activity
[5] = tested on: ACHN; experiment: Antitumor activity against human ACHN cells assessed as cell growth at 0.1 uM; details: read-out: Activity
[6] = tested on: CAKI-1; experiment: Antitumor activity against human CAKI-1 cells assessed as cell growth at 0.1 uM; details: read-out: Activity
[7] = tested on: A498; experiment: Antitumor activity against human A498 cells assessed as cell growth at 0.1 uM; details: read-out: Activity
[8] = tested on: SK-OV-3; experiment: Antitumor activity against human SKOV3 cells assessed as cell growth at 0.1 uM; details: read-out: Activity
[9] = tested on: NCI/ADR-RES; experiment: Antitumor activity against human NCI/ADR-RES cells assessed as cell growth at 0.1 uM; details: read-out: Activity
[10] = tested on: OVCAR-8; experiment: Antitumor activity against human OVCAR8 cells assessed as cell growth at 0.1 uM; details: read-out: Activity
[11] = tested on: OVCAR-5; experiment: Antitumor activity against human OVCAR5 cells assessed as cell growth at 0.1 uM; details: read-out: Activity
[12] = tested on: OVCAR-3; experiment: Antitumor activity against human OVCAR3 cells assessed as cell growth at 0.1 uM; details: read-out: Activity
[13] = tested on: OVCAR-4; experiment: Antitumor activity against human OVCAR4 cells assessed as cell growth at 0.1 uM; details: read-out: Activity
[14] = tested on: IGROV-1; experiment: Antitumor activity against human IGROV1 cells assessed as cell growth at 0.1 uM; details: read-out: Activity
[15] = tested on: UACC-62; experiment: Antitumor activity against human UACC62 cells assessed as cell growth at 0.1 uM; details: read-out: Activity
[16] = tested on: UACC-257; experiment: Antitumor activity against human UACC257 cells assessed as cell growth at 0.1 uM; details: read-out: Activity
[17] = tested on: SK-MEL-5; experiment: Antitumor activity against human SK-MEL-5 cells assessed as cell growth at 0.1 uM; details: read-out: Activity
[18] = tested on: SK-MEL-28; experiment: Antitumor activity against human SK-MEL-28 cells assessed as cell growth at 0.1 uM; details: read-out: Activity
[19] = tested on: MDA-MB-435; experiment: Antitumor activity against human MDA-MB-435 cells assessed as cell growth at 0.1 uM; details: read-out: Activity
[20] = tested on: M14; experiment: Antitumor activity against human M14 cells assessed as cell growth at 0.1 uM; details: read-out: Activity
[21] = tested on: Malme-3M; experiment: Antitumor activity against human MALME-3M cells assessed as cell growth at 0.1 uM; details: read-out: Activity
[22] = tested on: LOX IMVI; experiment: Antitumor activity against human LOXIMVI cells assessed as cell growth at 0.1 uM; details: read-out: Activity
[23] = tested on: U-251; experiment: Antitumor activity against human U251 cells assessed as cell growth at 0.1 uM; details: read-out: Activity
[24] = tested on: SNB-75; experiment: Antitumor activity against human SNB75 cells assessed as cell growth at 0.1 uM; details: read-out: Activity
[25] = tested on: SF-539; experiment: Antitumor activity against human SF539 cells assessed as cell growth at 0.1 uM; details: read-out: Activity
[26] = tested on: SNB-19; experiment: Antitumor activity against human SNB19 cells assessed as cell growth at 0.1 uM; details: read-out: Activity
[27] = tested on: SF-295; experiment: Antitumor activity against human SF295 cells assessed as cell growth at 0.1 uM; details: read-out: Activity
[28] = tested on: SF-268; experiment: Antitumor activity against human SF268 cells assessed as cell growth at 0.1 uM; details: read-out: Activity
[29] = tested on: SW-620; experiment: Antitumor activity against human SW620 cells assessed as cell growth at 0.1 uM; details: read-out: Activity
[30] = tested on: KM12; experiment: Antitumor activity against human KM12 cells assessed as cell growth at 0.1 uM; details: read-out: Activity
[31] = tested on: HCT-15; experiment: Antitumor activity against human HCT15 cells assessed as cell growth at 0.1 uM; details: read-out: Activity
[32] = tested on: HT-29; experiment: Antitumor activity against human HT-29 cells assessed as cell growth at 0.1 uM; details: read-out: Activity
[33] = tested on: HCT-116; experiment: Antitumor activity against human HCT116 cells assessed as cell growth at 0.1 uM; details: read-out: Activity
[34] = Antitumor activity against human HCC2998 cells assessed as cell growth at 0.1 uM; details: HCC 2998, read-out: Activity
[35] = tested on: NCI-H460; experiment: Antitumor activity against human NCI-H460 cells assessed as cell growth at 0.1 uM; details: read-out: Activity
[36] = tested on: NCI-H522; experiment: Antitumor activity against human NCI-H522 cells assessed as cell growth at 0.1 uM; details: read-out: Activity
[37] = tested on: NCI-H23; experiment: Antitumor activity against human NCI-H23 cells assessed as cell growth at 0.1 uM; details: read-out: Activity
[38] = tested on: NCI-H226; experiment: Antitumor activity against human NCI-H226 cells assessed as cell growth at 0.1 uM; details: read-out: Activity
[39] = tested on: HOP-62; experiment: Antitumor activity against human HOP62 cells assessed as cell growth at 0.1 uM; details: read-out: Activity
[40] = Antitumor activity against human EKVX cells assessed as cell growth at 0.1 uM; details: read-out: Activity
[41] = tested on: A549; experiment: Antitumor activity against human A549/ATCC cells assessed as cell growth at 0.1 uM; details: read-out: Activity
[42] = tested on: SR; experiment: Antitumor activity against human SR cells assessed as cell growth at 0.1 uM; details: read-out: Activity
[43] = tested on: MOLT-4; experiment: Antitumor activity against human MOLT4 cells assessed as cell growth at 0.1 uM; details: read-out: Activity
[44] = tested on: RPMI-8226; experiment: Antitumor activity against human RPMI8226 cells assessed as cell growth at 0.1 uM; details: read-out: Activity
[45] = tested on: K562; experiment: Antitumor activity against human K562 cells assessed as cell growth at 0.1 uM; details: read-out: Activity
[46] = tested on: HL-60; experiment: Antitumor activity against human HL60(TB) cells assessed as cell growth at 0.1 uM; details: read-out: Activity
[47] = tested on: CCRF-CEM; experiment: Antitumor activity against human CCRF-CEM cells assessed as cell growth at 0.1 uM; details: read-out: Activity
[48] = tested on: Mycobacterium tuberculosis; experiment: Antitubercular activity against Mycobacterium tuberculosis H37Rv assessed as growth inhibition after 12 to 28 days by L.J. agar MIC method
[49] = tested on: Aspergillus clavatus; experiment: Antimicrobial activity against Aspergillus clavatus MTCC 1323 assessed as growth inhibition measured after overnight incubation by broth dilution method
[50] = tested on: Aspergillus niger; experiment: Antimicrobial activity against Aspergillus niger MTCC 282 assessed as growth inhibition measured after overnight incubation by broth dilution method
[51] = tested on: Candida albicans; experiment: Antimicrobial activity against Candida albicans MTCC 227 assessed as growth inhibition measured after overnight incubation by broth dilution method
[52] = tested on: Pseudomonas aeruginosa; experiment: Antimicrobial activity against Pseudomonas aeruginosa MTCC 2488 assessed as growth inhibition measured after overnight incubation by broth dilution method
[53] = tested on: Escherichia coli; experiment: Antimicrobial activity against Escherichia coli MTCC 443 assessed as growth inhibition measured after overnight incubation by broth dilution method
[54] = tested on: Streptococcus pyogenes; experiment: Antimicrobial activity against Streptococcus pyogenes MTCC 442 assessed as growth inhibition measured after overnight incubation by broth dilution method
[55] = tested on: Staphylococcus aureus; experiment: Antimicrobial activity against Staphylococcus aureus MTCC 96 assessed as growth inhibition measured after overnight incubation by broth dilution method
[56] = tested on: MDA-MB-468; experiment: Antitumor activity against human MDA-MB-468 cells assessed as cell growth at 0.1 uM; details: read-out: Activity
[57] = tested on: T47D; experiment: Antitumor activity against human T47D cells assessed as cell growth at 0.1 uM; details: read-out: Activity
[58] = Antitumor activity against human Hs 578T cells assessed as cell growth at 0.1 uM; details: read-out: Activity
[59] = tested on: BT-549; experiment: Antitumor activity against human BT549 cells assessed as cell growth at 0.1 uM; details: read-out: Activity
[60] = tested on: MDA-MB-231; experiment: Antitumor activity against human MDA-MB-231/ATCC cells assessed as cell growth at 0.1 uM; details: read-out: Activity
[61] = tested on: DU-145; experiment: Antitumor activity against human DU145 cells assessed as cell growth at 0.1 uM; details: read-out: Activity
[62] = tested on: MCF7; experiment: Antitumor activity against human MCF7 cells assessed as cell growth at 0.1 uM; details: read-out: Activity
[63] = tested on: PC-3; experiment: Antitumor activity against human PC3 cells assessed as cell growth at 0.1 uM; details: read-out: Activity

Compound: c1ccc(CSc2ncccc2-c2nnc(SCCN3CCOCC3)o2)cc1
- growth at 0.1 µM [1]: 89.4%
- growth at 0.1 µM [2]: 118%
- growth at 0.1 µM [3]: 114%
- growth at 0.1 µM [4]: 123%
- growth at 0.1 µM [5]: 124%
- growth at 0.1 µM [6]: 100%
- growth at 0.1 µM [7]: 107%
- growth at 0.1 µM [8]: 109%
- growth at 0.1 µM [9]: 107%
- growth at 0.1 µM [10]: 109%
- growth at 0.1 µM [11]: 119%
- growth at 0.1 µM [12]: 120%
- growth at 0.1 µM [13]: 106%
- growth at 0.1 µM [14]: 98.3%
- growth at 0.1 µM [15]: 113%
- growth at 0.1 µM [16]: 147%
- growth at 0.1 µM [17]: 102%
- growth at 0.1 µM [18]: 107%
- growth at 0.1 µM [19]: 114%
- growth at 0.1 µM [20]: 108%
- growth at 0.1 µM [21]: 111%
- growth at 0.1 µM [22]: 108%
- growth at 0.1 µM [23]: 117%
- growth at 0.1 µM [24]: 79.6%
- growth at 0.1 µM [25]: 132%
- growth at 0.1 µM [26]: 115%
- growth at 0.1 µM [27]: 106%
- growth at 0.1 µM [28]: 107%
- growth at 0.1 µM [29]: 107%
- growth at 0.1 µM [30]: 107%
- growth at 0.1 µM [31]: 105%
- growth at 0.1 µM [32]: 111%
- growth at 0.1 µM [33]: 108%
- growth at 0.1 µM [34]: 116%
- growth at 0.1 µM [35]: 122%
- growth at 0.1 µM [36]: 105%
- growth at 0.1 µM [37]: 104%
- growth at 0.1 µM [38]: 114%
- growth at 0.1 µM [39]: 116%
- growth at 0.1 µM [40]: 108%
- growth at 0.1 µM [41]: 112%
- growth at 0.1 µM [42]: 104%
- growth at 0.1 µM [43]: 103%
- growth at 0.1 µM [44]: 104%
- growth at 0.1 µM [45]: 117%
- growth at 0.1 µM [46]: 101%
- growth at 0.1 µM [47]: 103%
- growth inhibition (GI) [48]: 99%
- MIC ([48]; Mycobacterium tuberculosis, H37Rv): 25 µg/mL (≈ 60.3 µM)
- MIC [49]: 1000 µg/mL (≈ 2410 µM)
- MIC [50]: 1000 µg/mL (≈ 2410 µM)
- MIC [51]: 1000 µg/mL (≈ 2410 µM)
- MIC [52]: 200 µg/mL (≈ 482 µM)
- MIC [53]: 200 µg/mL (≈ 482 µM)
- MIC [54]: 200 µg/mL (≈ 482 µM)
- MIC [55]: 500 µg/mL (≈ 1210 µM)
- growth at 0.1 µM [56]: 98.3%
- growth at 0.1 µM [57]: 101%
- growth at 0.1 µM [58]: 133%
- growth at 0.1 µM [59]: 112%
- growth at 0.1 µM [60]: 114%
- growth at 0.1 µM [61]: 112%
- growth at 0.1 µM [62]: 94.4%
- growth at 0.1 µM [63]: 111%
